Consider 3 compounds from publication PMC12387680, “Mohangic Acid H and Mohangiol: New p-Aminoacetophenone Derivatives from a Mudflat-Derived Streptomyces sp” (Marine Drugs, 2025).

Test [1] deals with T1, isocitrate lyase (ICL) (Candida albicans, UniProt Q9P8Q7).
T1 construct: gene ICL1; recombinant ICL
Nature of the test: biochemical. Particulars: for IC50: read-out: IC50 (μg/mL) (converted).

The subject of test [2] is T2, T. mentagrophytes.
T2 construct: IFM 40996
Briefly: microbe, parasite or virus in culture. Particulars: Trichophyton mentagrophytes, 96 h. Further details: broth microdilution antifungal MIC in RPMI 1640, growth inhibition. On the procedure:
(§1) Potato dextrose agar (PDA) was used to cultivate Candida albicans ATCC 10231. After incubation for 48 h at 28 °C, the yeast cells were harvested by centrifugation and washed twice with sterile distilled water. Aspergillus fumigatus HIC 6094, Trichophyton rubrum NBRC 9185, and Trichophyton mentagrophytes IFM 40,996 were also plated on PDA and incubated for 2 weeks at 28 °C. Spores were harvested and washed twice with sterile distilled water. Stock solutions of 1 and 2 were prepared in DMSO. Each stock solution was diluted with RPMI 1640 broth (Difco, Livonia, MI, USA) to give serial twofold dilutions in the range of 0.06–128 µg/mL. The final DMSO concentration was maintained at 1% by adding DMSO to the broth. Aliquots (10 µL) of the RPMI 1640 broth containing approximately 10^4 cells/mL were mixed with the test compound solutions in each well of a 96-well plate. The plates were incubated for 24 h (for C. albicans), 48 h (for A. fumigatus), and 96 h (for T. rubrum and T. mentagrophytes) at 37 °C. A culture with DMSO (1%) was used as a solvent control, and a culture supplemented with amphotericin B was used as a positive control. The biological activities of mohangic acid H (1) and mohangiol (2) were evaluated in multiple ways. 1 and 2 were evaluated for inhibitory activities against pathogenic bacteria (Staphylococcus aureus ATCC 25923, Enterococcus faecalis ATCC 19433, Enterococcus faecium ATCC 19434, Salmonella enterica ATCC 14028, Escherichia coli ATCC 25922, Klebsiella pneumoniae ATCC 10031) and fungi (Candida albicans ATCC 10231, Aspergillus fumigatus HIC 6094, Trichophyton rubrum NBRC 9185, Trichophyton mentagrophytes IFM 40996) in broth microdilution MIC assays.

Test [3] concerns T3, A. fumigatus.
T3 construct: HIC 6094
Briefly: microbe, parasite or virus in culture. Further details: broth microdilution antifungal MIC in RPMI 1640, growth inhibition. The conditions noted are these: Aspergillus fumigatus, 48 h. On the procedure: as §1

Test [4] relates to T4, T. rubrum.
T4 construct: NBRC 9185
Briefly: microbe, parasite or virus in culture. Further details: broth microdilution antifungal MIC in RPMI 1640, growth inhibition. The conditions noted are these: Trichophyton rubrum, 96 h. On the procedure:
as §1

Test [5] concerns T5, C. albicans.
T5 construct: ATCC 10231
Nature of the test: microbe, parasite or virus in culture. Further details: broth microdilution antifungal MIC in RPMI 1640, growth inhibition. The conditions noted are these: Candida albicans, 24 h. On the procedure: as §1

Test [6] relates to T6, E. faecium.
T6 construct: ATCC 19434
Briefly: microbe, parasite or virus in culture. Further details: broth microdilution antibacterial MIC, growth inhibition. Particulars: Enterococcus faecium, 24 h. How it is done:
(§2) Three species of Gram-positive bacteria (Staphylococcus aureus ATCC 25923, Enterococcus faecalis ATCC 19433, and Enterococcus faecium ATCC 19434) and three species of Gram-negative bacteria (Klebsiella pneumoniae ATCC 10031, Salmonella enterica ATCC 14028, and Escherichia coli ATCC 25922) as human pathogens were selected as test strains and prepared for the antibacterial activity assays. The test bacterial strains were cultured overnight in Mueller–Hinton broth (MHB) at 37 °C for human pathogens and in tryptic soy broth (TSB) at 28 °C for B. thuringiensis. The grown strains were harvested by using a centrifuge and washed twice with sterilized water. Ampicillin and tetracycline were used as positive controls, and dimethyl sulfoxide (DMSO) was used as a negative control. Each compound, including 1 and 2, was dissolved in DMSO and diluted with MHB or TSB to prepare serial two-fold dilutions (from 128 µg/mL to 0.015 µg/mL). For the antibacterial activity assay, 10 µL of suspensions containing 1 × 10^6 colony forming units (CFU)/mL of the test bacteria and 190 µL of MHB or TSB, which included the positive control compounds or test compounds, were added into each well of a 96-well plate (final concentration of test bacteria was 5 × 10^4 CFU/mL). Then, the plate was incubated at 37 °C or 28 °C for 24 h. […] The biological activities of mohangic acid H (1) and mohangiol (2) were evaluated in multiple ways. 1 and 2 were evaluated for inhibitory activities against pathogenic bacteria (Staphylococcus aureus ATCC 25923, Enterococcus faecalis ATCC 19433, Enterococcus faecium ATCC 19434, Salmonella enterica ATCC 14028, Escherichia coli ATCC 25922, Klebsiella pneumoniae ATCC 10031) and fungi (Candida albicans ATCC 10231, Aspergillus fumigatus HIC 6094, Trichophyton rubrum NBRC 9185, Trichophyton mentagrophytes IFM 40996) in broth microdilution MIC assays.

The subject of test [7] is T7, E. coli.
T7 construct: ATCC 25922
Briefly: microbe, parasite or virus in culture. Further details: broth microdilution antibacterial MIC, growth inhibition. Particulars: Escherichia coli, 24 h. How it is done: as §2

Test [8] relates to T8, S. aureus.
T8 construct: ATCC 25923
Nature of the test: microbe, parasite or virus in culture. Further details: broth microdilution antibacterial MIC, growth inhibition. Particulars: Staphylococcus aureus, 24 h. On the procedure:
as §2

Test [9] relates to T9, E. faecalis.
T9 construct: ATCC 19433
Nature of the test: microbe, parasite or virus in culture. The conditions noted are these: Enterococcus faecalis, 24 h. Further details: broth microdilution antibacterial MIC, growth inhibition. On the procedure:
as §2

For test [10], the system named is T10, S. enterica.
T10 construct: ATCC 14028
Nature of the test: microbe, parasite or virus in culture. Further details: broth microdilution antibacterial MIC, growth inhibition. Particulars: Salmonella enterica, 24 h. On the procedure: as §2

For test [11], the system named is T11, K. pneumonia.
T11 construct: ATCC 10031
Briefly: microbe, parasite or virus in culture. Further details: broth microdilution antibacterial MIC, growth inhibition. The conditions noted are these: Klebsiella pneumoniae, 24 h. How it is done:
as §2

pIC50: −log10 of the molar value. Where two headings read alike, the source gives them in different places.

The pIC50 is the negative decadic logarithm of the IC50, by convention in mol/L. High values mean a small IC50, low ones a large IC50.

T1 sequence (Q9P8Q7 whole entry): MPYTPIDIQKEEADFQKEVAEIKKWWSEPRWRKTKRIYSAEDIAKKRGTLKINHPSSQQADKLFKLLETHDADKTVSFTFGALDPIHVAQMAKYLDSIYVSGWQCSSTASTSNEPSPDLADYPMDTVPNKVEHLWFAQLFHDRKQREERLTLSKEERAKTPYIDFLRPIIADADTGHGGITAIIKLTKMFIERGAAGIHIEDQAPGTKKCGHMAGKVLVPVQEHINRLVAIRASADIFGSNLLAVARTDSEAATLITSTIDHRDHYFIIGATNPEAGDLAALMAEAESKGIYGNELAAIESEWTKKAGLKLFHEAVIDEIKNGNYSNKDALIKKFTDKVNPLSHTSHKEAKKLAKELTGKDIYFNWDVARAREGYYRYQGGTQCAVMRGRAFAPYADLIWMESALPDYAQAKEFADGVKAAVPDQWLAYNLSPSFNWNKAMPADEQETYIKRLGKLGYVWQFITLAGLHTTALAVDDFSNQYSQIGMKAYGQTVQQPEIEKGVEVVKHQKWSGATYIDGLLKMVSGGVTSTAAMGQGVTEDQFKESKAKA

In the case of `O=C(O)CC[N+](=O)[O-]` [3-nitropropionate, reference compound], in [1], the negative-log IC50 (pIC50) is 3.90.
For `CC(=O)Nc1ccc(C(=O)C[C@@H](O)[C@H](C)C[C@@H](C)[C@H](O)[C@H](C)/C=C/C=C/C(=O)O)cc1` [compound 1, Mohangic acid H], the MIC in [2], in test [3], in test [4], in [5], in test [6] and in test [7] was over 128 µM in each case. Also, the MIC in test [8], in [9], in [10] and in test [11] was over 128 µM throughout. The IC50 in test [1] is 49.5 µM.
Consider `C[C@H](O)CC/C=C/C=C/[C@@H](C)[C@@H](O)[C@H](C)C[C@@H](C)[C@H](O)CC(=O)c1ccc(N)cc1` [compound 2, Mohangiol], for which the MIC in test [2], in test [3], in test [4], in test [5], in test [6] and in [7] was over 128 µM throughout. Further, the MIC in [8], in [9], in [10] and in test [11] was over 128 µM in each case. Also, in [1], the IC50 was 50.6 µM.
